Measured values: US8349801B2, “Peptide ligands for G-protein coupled receptors” (priority 2006, dated 2013)
Like-named read-outs stand apart in the source and are kept apart here. Blank lines part the entries; values can stand above or below the compound they belong to. No end group written: not given here.

Assays:
MrgX1 = molecular target: T1, MrgX1 (Homo sapiens, UniProt Q96LB2); experiment: Calcium flux in CHO-K1 cells co-transfected with MrgX1 and Gα16; type: cell-based; details: dose response 1-3000 nM
T1 construct: expressed in transfected cells; host or cells: CHO-K1 (ATCC-CCL-61), transient co-transfection
Experimental: (§1) The assay was carried out in CHO cells were transiently transfected with the GPCR of choice, by utilizing the promiscuous Gα16 to divert signaling to the Gq pathway, thus enabling readout of GPCR activation by testing for Calcium flux as described by Liu et al 2003 (Biomol Screen 8, 39-49).
(§2) All the peptides thus obtained were tested for their ability to change calcium flux in CHO—K1 cells (ATCC-CCL-61) transiently co-transfected with an expression vector containing the GPCR of choice and expression vector containing the Gα16 encoding cDNA. Expression constructs containing cDNA clones for MrgX1, MrgX2, Mas or FPRL1 were commercially obtained in one of the following expression vectors: pcDNA3.1, pCMV6, or MO2.
Transient transfections were performed using CHO—K1 cells as host cells. […]
On the day of the experiment, cells were loaded with Fluo4-NW (Invitrogen) according to the manufacturer's recommendation. Plates were loaded into a FlexStation™ (Molecular Devices) plate reader and fluorescence was monitored. Seventeen seconds following initiation of reading, cells were stimulated with the indicated agonist/compound at final concentration of 1 μM. […]
Based on dose response experiments, EC50 best fit values were calculated by non-linear regression of sigmoidal dose-response curves, using Prism version 4 (GraphPad Software Inc., San Diego, Calif.). […]

FPRL1 = molecular target: T2, FPRL1 (Homo sapiens, UniProt P25090); experiment: Calcium flux in CHO-K1 cells co-transfected with FPRL1 and Gα16; type: cell-based; design: expressed in transfected cells; host or cells: CHO-K1 (ATCC-CCL-61), transient co-transfection; details: for calcium flux, P58 and derivatives: dose response
T2 sequence (P25090 1-351): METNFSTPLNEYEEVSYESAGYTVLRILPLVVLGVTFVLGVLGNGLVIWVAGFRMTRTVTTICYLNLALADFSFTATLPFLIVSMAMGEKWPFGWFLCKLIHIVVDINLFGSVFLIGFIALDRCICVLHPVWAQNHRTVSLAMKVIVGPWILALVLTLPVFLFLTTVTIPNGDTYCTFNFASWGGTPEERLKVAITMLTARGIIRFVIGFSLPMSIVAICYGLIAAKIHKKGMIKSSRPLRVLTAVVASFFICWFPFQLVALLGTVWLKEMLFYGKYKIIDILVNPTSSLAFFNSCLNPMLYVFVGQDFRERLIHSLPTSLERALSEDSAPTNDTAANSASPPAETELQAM
Experimental: as §1, §2
(§3) Transient transfections were performed using CHO—K1 cells as host cells. Cells (12 million) were plated into T75 flasks on the day preceding transfection. Cells were transfected with the appropriate GPCR expression vector and with a vector expressing Gα16 using a lipid-based reagent, MTI, according to the manufacturer's recommendation. Cells were transfected for 5 hours, then re-plated into 96-well dishes (60,000 cells per well) and grown overnight.
(§4) On the day of the experiment, cells were loaded with Fluo4-NW (Invitrogen) according to the manufacturer's recommendation. Plates were loaded into a FlexStation™ (Molecular Devices) plate reader and fluorescence was monitored. Seventeen seconds following initiation of reading, cells were stimulated with the indicated agonist/compound at final concentration of 1 μM. Each 96 well plate contained cells transfected with one GPCR expression vector and each of the examined peptides was tested in triplicate.
(§5) We defined a hit as a peptide which elicited a clear and distinct increase in intracellular calcium that is clearly visible and statistically significant upon examination of the calcium trace for at least two repeats. The criterion for statistical significance was a p-value lower than 0.001 in a t-test comparing the levels of calcium before and after peptide addition.
(§6) Based on dose response experiments, EC50 best fit values were calculated by non-linear regression of sigmoidal dose-response curves, using Prism version 4 (GraphPad Software Inc., San Diego, Calif.). The formulae for the sigmoidal dose-response curves was defined as Y=Bottom+(Top−Bottom)/(1+10^ (LogEC50−X)*HillSlope))
The ability of Peptides to change calcium flux was examined in CHO—K1 cells co-transfected with FPRL1 and Gal 6.

[1] = tested on: Zymosan-induced murine dorsal air pouch model; type: in vivo, mice; details: 4 h; for inhibition of zymosan-induced neutrophil (GR-1+) accumulation: FACS
Experimental: The anti-inflammatory activity of P58 shorter derivatives was tested in the same model of acute inflammation used in Example 6, the Zymosan-induced murine dorsal air pouch model.
Male out-bred Swiss albino mice were purchased from Harlan, UK (T.O. strain) and maintained on a standard chow pellet diet with tap water ad libitum and a 12:00 h light/dark cycle. All animals were housed for 7 days prior to experimentation to allow body weight to reach ˜25 g on the day of the experiment.
Drugs were stored at −20° C. and defrosted on the day of the experiment. Peptide P58 (SEQ ID NO:1) was provided lyophilized; it was taken back to room temperature and dissolved with sterile PBS before use to make an initial 1 mg/ml solution. Peptide P58-4 (SEQ ID NO:2) was provided lyophilized; it was taken back to room temperature and dissolved with sterile PBS before use to make an initial 327 μg/ml solution. Peptide P58-5 (SEQ ID NO:3) was provided lyophilized; it was taken back to room temperature and dissolved with sterile PBS before use to make an initial 476 μg/ml solution. Vehicle consisted of sterile pyrogen free PBS (Gibco, cat no. 14190-094). Once dissolved, peptides P58 (SEQ ID NO:1), P58-4 (SEQ ID NO:2) and P58-5 (SEQ ID NO:3) gave a clear solution. Drugs or vehicle were administered i.v. at a final volume of 200 μl in the doses described below.
Lavage fluids were kept all the time on ice, then used to determine the number of migrated leukocytes, by taking an aliquot (100 μl) and diluting it 1:10 in Turk's solution (0.01% crystal violet in 3% acetic acid). The samples were then vortexed and 10 μl of the stained cell solution were placed in a Neubauer haematocymometer. Differential cell count was done using a light microscope (Olympus B061). In view of their chromatic characteristics and their nucleus and cytoplasm appearance, polymorphonuclear leukocytes (PMN; >95% neutrophils) could be easily identified.
For FACS analyses, an aliquot of lavage fluid was stained with the PE-conjugated anti-GR-1 monoclonal antibody (1:100 dilution, eBiosciences; Cat 11-5931) to mark polymorphonuclear leukocytes. Staining was performed at 4° C. Flow cytometry was performed using FACScan analyser (Becton Dickinson, Cowley, UK) with air-cooled 100 mW argon laser tuned to 488 nm connected to an Apple Macintosh G3 computer running Cell Quest II software. Forward and sidescatter characteristics were initially used to distinguish between the three distinct cell populations (lymphocytes, monocytes and granulocytes). Cells positive for GR-1 were detected in the FL2 channel (wavelength of 548 nm). Data are expressed as percentage of positive cells (in relation to the specific mAb). Determination of positive and negative populations was performed based on the control staining with irrelevant IgG isotype (rat IgG2b) labelled with PE. Once determined, quadrants were rigorously maintained for all analyses.
Data are shown for single mice, and also shown as mean±S.E. of (n) mice per group. Statistical differences were determined by ANOVA, plus Student Newman Keuls test. A P value<0.05 was taken as significant.

[2] = tested on: Isoproterenol induced rats; experiment: Cardiac remodeling induced by Isoproterenol; type: in vivo, Wistar rats; details: isoproterenol 2 mg/kg/day s.c. 7 days; peptides 1 ug/hour/Kg osmotic minipump; Losartan 1 mg/kg once a day by gavage
Experimental: The effect of the peptides […] (SEQ ID NO:10), […]-dimer ([…]) (SEQ ID […]), P33_V (SEQ ID NO:7), P33-dimer (P33_D) (SEQ ID NO:6) on cardiac remodeling, was tested by determining their effect on heart hypertrophy and fibrosis (deposition of collagen I, III, and fibronectin) induced by Isoproterenol. Losartan (an antagonist of the known angiotensin II receptor, AT1, Kucharewicz et al., 2002; Hypertension, (40): 774-779) was used as positive control. The negative control group was treated with vehicle only. Additional control groups included rats not-treated with isoproterenol which were treated with the peptides, with Losartan or with the vehicle. The analysis included determination of the left ventricle mass and morphometry. In addition, immunofuorescence analysis of fibronectin and collagens I and III deposition was performed by confocal microscopy. Animals Acclimatization: Male Wistar rats Age: 13-14 weeks (250 to 300 g) were maintained in the animal facilities for 7 days before the beginning of the experiment. The animals were exposed to a brightness circle of light-dark cycle of 12 hs (day-06:00 to 18:00; night-18:00 to 06:00), and the room temperature was kept at 23±2° C. Heart failure was induced by daily injections of isoproterenol (2 mg/kg/day, subcutaneously) during 7 days. […] Immunofluorescence-labeling and quantitative confocal microscopy was used to investigate the distribution and quantity of collagen types I, III and fibronectin present in the left ventricles. […] Optimal confocal settings (aperture, gain and laser power) were determined at the beginning of each imaging session and then held constant during the analysis of all the samples. […] For quantitative analysis of collagens I, III, and fibronectin, the ImageTool 2.0 image analysis program was used ([…].edu/[…]) to measure the fluorescence intensity in images randomly selected. […]

MrgX2 = molecular target: T3, MrgX2 (Homo sapiens, UniProt Q96LB1); experiment: Calcium flux in CHO-K1 cells co-transfected with MrgX2 and Gα16; type: cell-based; details: for calcium flux relative to the negative control: 1 μM, about 20 to 90 seconds; for eliciting calcium flux compared to cortistatin-14: MrgX2-expressing cells, summary statement
T3 construct: expressed in transfected cells; host or cells: CHO-K1 (ATCC-CCL-61), transient co-transfection
T3 sequence (Q96LB1 1-330): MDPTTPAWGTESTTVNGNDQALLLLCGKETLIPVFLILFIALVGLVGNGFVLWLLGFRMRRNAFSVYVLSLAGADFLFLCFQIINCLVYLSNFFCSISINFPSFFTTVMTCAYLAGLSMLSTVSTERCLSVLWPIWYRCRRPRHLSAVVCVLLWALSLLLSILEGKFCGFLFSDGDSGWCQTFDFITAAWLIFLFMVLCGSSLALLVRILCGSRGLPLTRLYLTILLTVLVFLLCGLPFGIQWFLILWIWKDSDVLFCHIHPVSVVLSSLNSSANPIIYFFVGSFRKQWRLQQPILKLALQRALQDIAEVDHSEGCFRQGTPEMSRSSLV
Experimental: as §1, §2, §3, §4, §5, §6
The ability of Peptides to change calcium flux was examined in CHO—K1 cells co-transfected with MrgX2 and Gal 6.

T1 sequence (Q96LB2 whole entry): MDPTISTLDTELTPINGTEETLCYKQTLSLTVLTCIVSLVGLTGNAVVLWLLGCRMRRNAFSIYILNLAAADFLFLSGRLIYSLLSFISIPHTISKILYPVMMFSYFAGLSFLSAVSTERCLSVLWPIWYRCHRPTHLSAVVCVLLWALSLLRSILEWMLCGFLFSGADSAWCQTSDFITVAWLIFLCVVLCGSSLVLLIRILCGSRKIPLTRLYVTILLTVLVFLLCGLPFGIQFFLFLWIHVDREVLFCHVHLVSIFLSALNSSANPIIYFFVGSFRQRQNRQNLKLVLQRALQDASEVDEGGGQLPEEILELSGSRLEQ

Compound: CSCC[C@H](NC(=O)[C@H](Cc1ccccc1)NC(=O)CNC(=O)CNC(=O)[C@@H](N)Cc1ccc(O)cc1)C(=O)N[C@@H](CCCNC(=N)N)C(=O)N[C@@H](CCCNC(=N)N)C(=O)N[C@H](C(=O)NCC(=O)N[C@@H](CCCNC(=N)N)C(=O)N1CCC[C@H]1C(=O)N[C@@H](CCC(=O)O)C(=O)N[C@@H](Cc1c[nH]c2ccccc12)C(=O)N[C@@H](Cc1c[nH]c2ccccc12)C(=O)N[C@@H](CCSC)C(=O)N[C@@H](CC(=O)O)C(=O)N[C@@H](Cc1ccc(O)cc1)C(=O)N[C@@H](CCC(N)=O)C(=O)N[C@@H](CCCCN)C(=O)N[C@@H](CCCNC(=N)N)C(=O)N[C@@H](Cc1ccc(O)cc1)C(=O)NCC(=O)O)C(C)C [BAM22, reference compound]
- EC50 (MrgX1): ≥ 50 nM

- calcium flux, P58 and derivatives (FPRL1): elicited calcium flux
Compound: FTSWFM-amide (FTSWFM-NH2; listed as Homo sapiens) [P58—4]
- inhibition of leukocyte accumulation triggered by zymosan A ([1]; 20 nmole/mouse i.v.): 35%
- inhibition of leukocyte accumulation triggered by zymosan A ([1]; 80 nmole/mouse i.v.): 47%
- inhibition of zymosan-induced neutrophil (GR-1+) accumulation ([1]; 80 nmole/mouse i.v.): 49%

Compound: CCCCc1nc(Cl)c(CO)n1Cc1ccc(-c2ccccc2-c2nn[nH]n2)cc1 [Losartan, reference compound]
- effect on Isoproterenol induced raise in the left ventricle to body mass ratio (LV/BW) [2]: did not have an effect

- calcium flux relative to the negative control (MrgX2): increased calcium flux
- eliciting calcium flux compared to cortistatin-14 (MrgX2): superior to cortistatin-14
Compound: AHAQHFHKHQLWPSPFRALKPRP (listed as Homo sapiens) [Peptide 63]

- calcium flux relative to the negative control (FPRL1; 1 μM, three wells, about 20 to 90 seconds): increased calcium flux
- calcium flux relative to the negative control (MrgX2): increased calcium flux
- eliciting calcium flux compared to cortistatin-14 (MrgX2): superior to cortistatin-14
Compound: AAQATGPLQDNELPGLDERPPRAHAQHFHKHQLWPSPFRALKPRP (listed as Homo sapiens) [Peptide P94]

- calcium flux, P58 and derivatives (FPRL1): elicited calcium flux
Compound: LQKFTSWFM-amide (LQKFTSWFM-NH2; listed as Homo sapiens) [P58—5]
- inhibition of leukocyte accumulation triggered by zymosan A ([1]; 20 nmole/mouse i.v.): did not inhibit leukocyte migration
- inhibition of zymosan-induced neutrophil (GR-1+) accumulation ([1]; 20 nmole/mouse i.v.): weak effect
- inhibition of leukocyte accumulation triggered by zymosan A ([1]; 80 nmole/mouse i.v.): 29%

- EC50 (MrgX1): ≥ 300 nM
Compound: GIGSVWHWKHRVATRFTLPRFLQ [Peptide P60_S]
